Source: publication PMC6263338, “Synthesis of Some Phenylpropanoid Glycosides (PPGs) and Their Acetylcholinesterase/Xanthine Oxidase Inhibitory Activities” (Molecules, 2011)
“Also recorded” adds a separate entry of the source. Like-named read-outs stand apart in the source and are kept apart here.

Assays:
[1] = molecular target: T1, Xanthine Oxidase (from buttermilk) (Bos taurus, UniProt P80457); assay: In vitro XOD inhibitory activity (Xanthine Oxidase Detection Kit); assay type: biochemical; conditions: for inhibition at 1500 µg/mL: read-out: XOD inhibitory activity % inhibition (1.5 mg/mL); for XOD inhibitory activity (in words): summary of Table 1; for XOD inhibitory activity % inhibition (1.5 mg/mL): compounds in 1% DMSO, mean ± SD, triplicate
T1 construct: Xanthine Oxidase (from buttermilk, Sigma Co., Ltd. X4875); purchased Sigma Co., Ltd. X4875; host or cells: buttermilk
Procedure: (§1) In vitro inhibitory activity test of these glycosides against AChE and XOD was studied by using Acetylcholinesterase Detection Kit and Xanthine Oxidase Detection Kit.
Assay of the in vitro AChE/XOD inhibitory activity: The tests of in vitro inhibitory activity of these PPGs against AChE (from drosophila, Jing Peng Bio-Pesticide Co., Ltd. Shandong, P. R. China) and Xanthine Oxidase (from buttermilk, Sigma Co., Ltd. X4875) were carried out by using AChE (or XOD) Detection Kits (Jian Cheng Bioengineering Institute, Nan Jin, Jiangsu, P. R. China), following the manufacturer’s protocol. All the compounds were dissolved in 1% DMSO. […] If an inhibition of more than 30% was observed, the compound was classified as active. The active compounds were consequently tested at seven concentrations. The results were read on a microplate reader at the wavelength of 450 nm/530 nm. All the assays were performed in triplicate with three independent experiments. The IC50 values were calculated using XLfit software.

[2] = molecular target: T2, AChE (from drosophila) (Drosophila melanogaster, UniProt P07140); assay: In vitro AChE inhibitory activity (Acetylcholinesterase Detection Kit); assay type: biochemical; conditions: for inhibition at 1500 µg/mL: read-out: AChE inhibitory activitiy % inhibition (1.5 mg/mL); for inhibitory activities toward cholinesterase (in words): summary of Table 1
T2 construct: purchased Jing Peng Bio-Pesticide Co., Ltd. Shandong, P. R. China
Procedure: as §1
Assay of the in vitro AChE/XOD inhibitory activity: The tests of in vitro inhibitory activity of these PPGs against AChE (from drosophila, Jing Peng Bio-Pesticide Co., Ltd. Shandong, P. R. China) and Xanthine Oxidase (from buttermilk, Sigma Co., Ltd. X4875) were carried out by using AChE (or XOD) Detection Kits (Jian Cheng Bioengineering Institute, Nan Jin, Jiangsu, P. R. China), following the manufacturer’s protocol. All the compounds were dissolved in 1% DMSO. […] The results were read on a microplate reader at the wavelength of 450 nm/530 nm. All the assays were performed in triplicate with three independent experiments. The IC50 values were calculated using XLfit software.

[3] = read-out: XOD inhibitory activity IC50, seven concentrations, mean ± SD of triplicate independent experiments, – = not active
[4] = 1.5 mg/mL, compounds in 1% DMSO, mean ± SD, triplicate
[5] = seven concentrations, mean ± SD of triplicate independent experiments, – = not active, read-out: AChE inhibitory activitiy IC50
[6] = read-out: AChE inhibitory activitiy IC50, seven concentrations, mean ± SD of triplicate independent experiments, – = not active
[7] = seven concentrations, mean ± SD of triplicate independent experiments, – = not active

Molecule: C[C@@H]1O[C@@H](OC[C@H]2O[C@@H](OCC=Cc3ccccc3)[C@H](O)[C@@H](O)[C@@H]2O)[C@H](O)[C@H](O)[C@H]1O [Compound 23, Cinnamyl 6-O-(α-L-rhamnopyranosyl)-β-D-glucopyranoside]
- inhibition at 1500 µg/mL [1]: 60 ± 0.01%
- IC50 [1, 3]: 8.21 µM
- inhibition at 1500 µg/mL [2, 4]: 81 ± 0.05%
- IC50 [2, 5]: 2.05 µM

Molecule: OC[C@H]1O[C@@H](OCC=Cc2ccc(Cl)cc2)[C@H](O)[C@@H](O)[C@@H]1O [Compound 10j, 4-Chlorocinnamyl β-D-glucopyranoside]
- inhibition at 1500 µg/mL [1]: 50 ± 2.35%
- IC50 [1, 3]: 24.3 ± 1.4 µM
- XOD inhibitory activity (in words) [1]: have XOD inhibitory activity
- inhibition at 1500 µg/mL [2, 4]: 42 ± 3.23%
- IC50 [2, 6]: 38.3 ± 1.4 µM

Molecule: OC[C@H]1O[C@@H](OCC=Cc2ccccc2F)[C@H](O)[C@@H](O)[C@@H]1O [Compound 10i, 2-Fluorocinnamyl β-D-glucopyranoside]
- inhibition at 1500 µg/mL [1]: 24 ± 1.32%
- XOD inhibitory activity IC50 (μM) [1, 7]: – (not active (less than 30% inhibition at 1.5 mg/mL))
- inhibition at 1500 µg/mL [2, 4]: 18 ± 2.11%
- AChE inhibitory activitiy IC50 (μM) [2, 7]: – (not active (less than 30% inhibition at 1.5 mg/mL))

Molecule: COc1cc(C=CCO[C@@H]2O[C@H](CO)[C@@H](O)[C@H](O)[C@H]2O)cc(OC)c1OC [Compound 10h, 3,4,5-Trimethoxycinnamyl β-D-glucopyranoside]
- IC50 [1]: 69.3 ± 1.3 µM
- inhibition at 1500 µg/mL [1]: 33 ± 2.16%
- inhibition at 1500 µg/mL [2, 4]: 17 ± 4.33%
- AChE inhibitory activitiy IC50 (μM) [2, 7]: – (not active (less than 30% inhibition at 1.5 mg/mL))

Molecule: OC[C@H]1O[C@@H](OCC=Cc2ccc(F)c(F)c2)[C@H](O)[C@@H](O)[C@@H]1O [Compound 10k, 3,4-Difluorocinnamyl β-D-glucopyranoside]
- inhibition at 1500 µg/mL [1]: 37 ± 2.78%
- IC50 [1, 3]: 55.4 ± 1.3 µM
- inhibition at 1500 µg/mL [2, 4]: 43 ± 2.31%
- IC50 [2, 5]: 35.5 ± 1.1 µM

Molecule: O[C@@H]1[C@@H](O)[C@H](OCC=Cc2ccccc2)O[C@H](CO[C@@H]2OC[C@@H](O)[C@H](O)[C@H]2O)[C@H]1O [Compound 21, Cinnamyl 6-O-(β-D-xylopyranosyl)-β-D-glucopyranoside]
- inhibition at 1500 µg/mL [1]: 74 ± 0.12%
- IC50 [1, 3]: 4.56 ± 0.1 µM
- inhibition at 1500 µg/mL [2, 4]: 82 ± 0.11%
- IC50 [2, 6]: 3.71 ± 0.1 µM

Molecule: O[C@@H]1[C@@H](O)[C@H](OC/C=C/c2ccccc2)O[C@H](CO[C@@H]2OC[C@H](O)[C@H](O)[C@H]2O)[C@H]1O [Compound 20, Rosavin]
- IC50 [1]: 5.55 µM
- inhibition at 1500 µg/mL [1]: 73 ± 0.02%
- inhibition at 1500 µg/mL [2, 4]: 85 ± 0.21%
- IC50 [2, 5]: 1.72 ± 0.1 µM

Molecule: COc1cc(C=CCO[C@@H]2O[C@H](CO)[C@@H](O)[C@H](O)[C@H]2O)ccc1O [Compound 16c, 4-Hydroxy-3-methoxycinnamyl β-D-glucopyranoside]
- inhibition at 1500 µg/mL [1]: 23 ± 0.93%
- XOD inhibitory activity IC50 (μM) [1, 7]: – (not active (less than 30% inhibition at 1.5 mg/mL))
- inhibition at 1500 µg/mL [2]: 54 ± 2.34%
- IC50 [2, 6]: 25.7 ± 0.7 µM

Molecule: OC[C@H]1O[C@@H](OCC=Cc2ccc3c(c2)OCO3)[C@H](O)[C@@H](O)[C@@H]1O [Compound 10g, 3,4-Methylenedioxycinnamyl β-D-glucopyranoside]
- inhibition at 1500 µg/mL [1]: 13 ± 1.43%
- XOD inhibitory activity IC50 (μM) [1, 7]: – (not active (less than 30% inhibition at 1.5 mg/mL))
- inhibition at 1500 µg/mL [2, 4]: 15 ± 3.55%
- AChE inhibitory activitiy IC50 (μM) [2, 7]: – (not active (less than 30% inhibition at 1.5 mg/mL))

Molecule: 4-Trifluoromethycinnamyl β-D-glucopyranoside [Compound 10f]
- XOD inhibitory activity % inhibition (1.5 mg/mL) [1]: 5 ± 0.22%
- XOD inhibitory activity IC50 (μM) [1, 7]: – (not active (less than 30% inhibition at 1.5 mg/mL))
- AChE inhibitory activitiy % inhibition (1.5 mg/mL) [2, 4]: 22 ± 2.44%
- AChE inhibitory activitiy IC50 (μM) [2, 7]: – (not active (less than 30% inhibition at 1.5 mg/mL))

Molecule: COc1cccc(C=CCO[C@@H]2O[C@H](CO)[C@@H](O)[C@H](O)[C@H]2O)c1OC [Compound 10e, 2,3-Dimethoxycinnamyl β-D-glucopyranoside]
- inhibition at 1500 µg/mL [1]: 22 ± 0.85%
- XOD inhibitory activity IC50 (μM) [1, 7]: – (not active (less than 30% inhibition at 1.5 mg/mL))
- inhibition at 1500 µg/mL [2, 4]: 34 ± 4.36%
- IC50 [2, 6]: 71.2 ± 2.8 µM

Molecule: COc1ccc(C=CCO[C@@H]2O[C@H](CO)[C@@H](O)[C@H](O)[C@H]2O)cc1OC [Compound 10d, 3,4-Dimethoxycinnamyl β-D-glucopyranoside]
- IC50 [1]: 73.5 ± 1.5 µM
- inhibition at 1500 µg/mL [1]: 35 ± 3.22%
- inhibition at 1500 µg/mL [2, 4]: 43 ± 1.35%
- IC50 [2, 5]: 43.5 ± 0.6 µM

Molecule: OC[C@H]1O[C@@H](OCC=Cc2ccc(O)cc2)[C@H](O)[C@@H](O)[C@@H]1O [Compound 16a, 4-Hydroxycinnamyl β-D-glucopyranoside]
- IC50 [1]: 79.3 ± 0.7 µM
- inhibition at 1500 µg/mL [1]: 32 ± 1.63%
- inhibition at 1500 µg/mL [2, 4]: 34 ± 2.67%
- IC50 [2, 5]: 75.2 ± 1.2 µM

Molecule: COc1ccccc1C=CCO[C@@H]1O[C@H](CO)[C@@H](O)[C@H](O)[C@H]1O [Compound 10b, 2-Methoxycinnamyl β-D-glucopyranoside]
- inhibition at 1500 µg/mL [1]: 12 ± 3.12%
- XOD inhibitory activity IC50 (μM) [1, 7]: – (not active (less than 30% inhibition at 1.5 mg/mL))
- IC50 [2]: 15.5 ± 2.1 µM
- inhibition at 1500 µg/mL [2, 4]: 62 ± 4.53%
- inhibitory activities toward cholinesterase (in words) [2]: moderate inhibitory activities; also recorded: more potent than the corresponding unsubstituted compound 10m

Molecule: OC[C@H]1O[C@@H](OCC=Cc2cccc(O)c2)[C@H](O)[C@@H](O)[C@@H]1O [Compound 16b, 3-Hydroxycinnamyl β-D-glucopyranoside]
- inhibition at 1500 µg/mL [1]: 41 ± 2.22%
- IC50 [1, 3]: 29.6 ± 1.2 µM
- XOD inhibitory activity (in words) [1]: have XOD inhibitory activity
- inhibition at 1500 µg/mL [2, 4]: 75 ± 2.12%
- IC50 [2, 6]: 7.62 ± 1.1 µM

Molecule: 3-Bromo-4-ethoxy-5-methoxycinnamylcinnamyl β-D-glucopyranoside [Compound 10n]
- XOD inhibitory activity % inhibition (1.5 mg/mL) [1]: 28 ± 1.74%
- IC50 ([1]; seven concentrations, mean ± SD of triplicate independent experiments, – = not active, read-out: XOD inhibitory activity IC50): 97.3 ± 0.8 µM
- AChE inhibitory activitiy % inhibition (1.5 mg/mL) [2, 4]: 36 ± 3.55%
- IC50 [2, 5]: 87.3 ± 2.1 µM

Molecule: COc1ccc(C=CCO[C@@H]2O[C@H](CO)[C@@H](O)[C@H](O)[C@H]2O)cc1 [Compound 10a, 4-Methoxycinnamyl β-D-glucopyranoside]
- inhibition at 1500 µg/mL [1]: 10 ± 2.22%
- XOD inhibitory activity IC50 (μM) [1, 7]: – (not active (less than 30% inhibition at 1.5 mg/mL))
- inhibition at 1500 µg/mL [2, 4]: 15 ± 3.27%
- AChE inhibitory activitiy IC50 (μM) [2, 7]: – (not active (less than 30% inhibition at 1.5 mg/mL))

Molecule: OC[C@H]1O[C@@H](OCC=Cc2ccc(Br)cc2)[C@H](O)[C@@H](O)[C@@H]1O [Compound 10l, 4-Bromocinnamyl β-D-glucopyranoside]
- inhibition at 1500 µg/mL [1]: 55 ± 3.67%
- IC50 [1, 3]: 19.6 ± 1.5 µM
- XOD inhibitory activity (in words) [1]: have XOD inhibitory activity
- inhibition at 1500 µg/mL [2, 4]: 57 ± 1.22%
- IC50 [2, 6]: 22.4 ± 0.6 µM
- inhibitory activities toward cholinesterase (in words) [2]: moderate inhibitory activities

Molecule: OC[C@H]1O[C@@H](OC/C=C/c2ccccc2)[C@H](O)[C@@H](O)[C@@H]1O [Compound 10m, Cinnamyl β-D-glucopyranoside]
- inhibition at 1500 µg/mL [1]: 38 ± 2.83%
- IC50 [1, 3]: 93.2 ± 1.4 µM
- inhibition at 1500 µg/mL [2, 4]: 16 ± 0.44%
- AChE inhibitory activitiy IC50 (μM) [2, 7]: – (not active (less than 30% inhibition at 1.5 mg/mL))

Molecule: COc1ccc(C=CCO[C@@H]2O[C@H](CO)[C@@H](O)[C@H](O)[C@H]2O)cc1O [Compound 16d, 3-Hydroxy-4-methoxycinnamyl β-D-glucopyranoside]
- inhibition at 1500 µg/mL [1]: 56 ± 2.34%
- IC50 [1, 3]: 16.5 ± 1.1 µM
- XOD inhibitory activity (in words) [1]: have XOD inhibitory activity
- inhibition at 1500 µg/mL [2, 4]: 66 ± 3.45%
- IC50 [2, 6]: 10.3 ± 2 µM

Molecule: COc1ccc(C=CCO[C@@H]2O[C@H](CO[C@@H]3OC[C@H](O)[C@H](O)[C@H]3O)[C@@H](O)[C@H](O)[C@H]2O)cc1 [Compound 22, 4-Methoxycinnamyl 6-O-(α-L-arabinopyranosyl)-β-D-glucopyranoside]
- inhibition at 1500 µg/mL [1]: 65 ± 0.1%
- IC50 [1, 3]: 5.71 ± 0.1 µM
- inhibition at 1500 µg/mL [2, 4]: 72 ± 0.1%
- IC50 [2, 5]: 4.23 ± 0.1 µM

Molecule: COc1cc(C=CCO[C@@H]2O[C@H](CO)[C@@H](O)[C@H](O)[C@H]2O)cc(OC)c1 [Compound 10c, 3,5-Dimethoxycinnamyl β-D-glucopyranoside]
- inhibition at 1500 µg/mL [1]: 21 ± 1.21%
- XOD inhibitory activity IC50 (μM) [1, 7]: – (not active (less than 30% inhibition at 1.5 mg/mL))
- inhibition at 1500 µg/mL [2, 4]: 23 ± 0.85%
- AChE inhibitory activitiy IC50 (μM) [2, 7]: – (not active (less than 30% inhibition at 1.5 mg/mL))
